In US11912703B2, “6-azaindole compounds” (BRISTOL-MYERS SQUIBB COMPANY, priority 2017, dated 2024):

What was measured:
human TLR7 = human TLR7 (Homo sapiens (Human), UniProt Q9NYK1); experiment: TLR7 inhibition reporter assay (HEK-Blue SEAP); format: cell-based; conditions: HEK-Blue cells overexpressing human TLR7, gardiquimod 7.5 μM stimulation
human TLR9 = human TLR9 (Homo sapiens (Human), UniProt Q9NR96); experiment: TLR9 inhibition reporter assay (HEK-Blue SEAP); conditions: read-out: TLR9 IC50; HEK-Blue cells overexpressing human TLR9, ODN2006 5 nM stimulation, SEAP reporter;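 note: SEAP driven by IFN-β minimal promoter carrying five NF-κB and AP-1 sites, 22 h at 37 °C, compounds 0.05 nM–50 µM, inhibition scaled between agonist-plus-DMSO and reference-inhibitor wells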
human TLR8 = human TLR8 (Homo sapiens (Human), UniProt Q9NR97); experiment: TLR8 inhibition reporter assay (HEK-Blue SEAP); conditions: read-out: TLR8 IC50; HEK-Blue cells overexpressing human TLR8, R848 15.9 μM stimulation, SEAP reporter;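 note: SEAP driven by IFN-β minimal promoter with five NF-κB and AP-1 sites, compounds tested 0.05 nM to 50 µM, 22 h incubation, inhibition relative to agonist plus DMSO wells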
Sequence of human TLR8 (Q9NR97 27-1041): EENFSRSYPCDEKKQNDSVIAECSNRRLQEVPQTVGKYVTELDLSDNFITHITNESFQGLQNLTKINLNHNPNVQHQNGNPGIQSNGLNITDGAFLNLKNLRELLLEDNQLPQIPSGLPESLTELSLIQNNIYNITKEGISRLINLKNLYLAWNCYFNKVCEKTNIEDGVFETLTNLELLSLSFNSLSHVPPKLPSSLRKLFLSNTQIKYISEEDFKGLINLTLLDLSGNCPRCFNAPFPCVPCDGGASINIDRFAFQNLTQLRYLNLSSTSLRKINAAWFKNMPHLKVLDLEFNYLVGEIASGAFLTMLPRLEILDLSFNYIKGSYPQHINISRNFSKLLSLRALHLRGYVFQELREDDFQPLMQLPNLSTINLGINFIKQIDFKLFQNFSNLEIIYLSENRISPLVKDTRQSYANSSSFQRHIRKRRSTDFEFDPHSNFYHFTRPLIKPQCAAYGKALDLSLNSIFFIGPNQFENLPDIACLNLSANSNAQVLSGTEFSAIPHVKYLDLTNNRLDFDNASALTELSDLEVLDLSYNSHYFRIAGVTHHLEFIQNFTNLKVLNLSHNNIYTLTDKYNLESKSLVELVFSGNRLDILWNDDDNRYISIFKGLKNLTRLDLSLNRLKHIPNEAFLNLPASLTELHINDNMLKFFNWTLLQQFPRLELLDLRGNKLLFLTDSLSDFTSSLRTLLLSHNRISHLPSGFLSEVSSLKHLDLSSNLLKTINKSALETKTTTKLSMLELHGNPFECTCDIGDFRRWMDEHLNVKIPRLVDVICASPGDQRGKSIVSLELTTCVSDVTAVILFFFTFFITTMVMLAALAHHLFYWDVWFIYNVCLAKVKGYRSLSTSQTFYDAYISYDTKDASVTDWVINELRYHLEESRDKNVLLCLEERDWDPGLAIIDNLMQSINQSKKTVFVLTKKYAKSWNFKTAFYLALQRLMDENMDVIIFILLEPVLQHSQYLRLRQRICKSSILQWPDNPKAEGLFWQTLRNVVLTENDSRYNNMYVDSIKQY

Sequence of human TLR7 (Q9NYK1 27-1049): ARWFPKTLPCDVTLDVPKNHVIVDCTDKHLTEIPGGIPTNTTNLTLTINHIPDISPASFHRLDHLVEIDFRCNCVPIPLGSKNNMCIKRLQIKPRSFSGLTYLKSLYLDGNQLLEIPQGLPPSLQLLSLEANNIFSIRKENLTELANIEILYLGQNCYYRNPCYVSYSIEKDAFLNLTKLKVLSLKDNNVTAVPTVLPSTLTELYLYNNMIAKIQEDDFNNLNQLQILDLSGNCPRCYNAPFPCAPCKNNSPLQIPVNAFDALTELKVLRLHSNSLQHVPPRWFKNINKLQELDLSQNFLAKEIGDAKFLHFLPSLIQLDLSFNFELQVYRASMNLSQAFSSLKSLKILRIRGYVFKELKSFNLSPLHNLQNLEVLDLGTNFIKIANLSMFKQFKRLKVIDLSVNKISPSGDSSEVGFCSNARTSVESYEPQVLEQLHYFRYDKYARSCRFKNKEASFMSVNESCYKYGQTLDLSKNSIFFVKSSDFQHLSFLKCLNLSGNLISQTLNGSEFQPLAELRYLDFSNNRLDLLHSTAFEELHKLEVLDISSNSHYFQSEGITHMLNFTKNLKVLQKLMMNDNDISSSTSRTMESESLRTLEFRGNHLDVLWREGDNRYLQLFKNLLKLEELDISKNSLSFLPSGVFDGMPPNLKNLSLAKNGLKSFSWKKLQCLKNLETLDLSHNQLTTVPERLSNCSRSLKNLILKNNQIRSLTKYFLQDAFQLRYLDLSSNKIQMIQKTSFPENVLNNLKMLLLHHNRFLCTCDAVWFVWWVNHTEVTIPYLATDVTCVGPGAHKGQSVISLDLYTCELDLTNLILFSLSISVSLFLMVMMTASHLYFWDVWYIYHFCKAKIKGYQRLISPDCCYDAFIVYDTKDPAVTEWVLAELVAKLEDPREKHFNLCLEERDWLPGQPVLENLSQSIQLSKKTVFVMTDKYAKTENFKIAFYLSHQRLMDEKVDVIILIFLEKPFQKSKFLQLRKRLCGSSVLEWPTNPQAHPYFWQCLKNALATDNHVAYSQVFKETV
Sequence of human TLR9 (Q9NR96 26-1032): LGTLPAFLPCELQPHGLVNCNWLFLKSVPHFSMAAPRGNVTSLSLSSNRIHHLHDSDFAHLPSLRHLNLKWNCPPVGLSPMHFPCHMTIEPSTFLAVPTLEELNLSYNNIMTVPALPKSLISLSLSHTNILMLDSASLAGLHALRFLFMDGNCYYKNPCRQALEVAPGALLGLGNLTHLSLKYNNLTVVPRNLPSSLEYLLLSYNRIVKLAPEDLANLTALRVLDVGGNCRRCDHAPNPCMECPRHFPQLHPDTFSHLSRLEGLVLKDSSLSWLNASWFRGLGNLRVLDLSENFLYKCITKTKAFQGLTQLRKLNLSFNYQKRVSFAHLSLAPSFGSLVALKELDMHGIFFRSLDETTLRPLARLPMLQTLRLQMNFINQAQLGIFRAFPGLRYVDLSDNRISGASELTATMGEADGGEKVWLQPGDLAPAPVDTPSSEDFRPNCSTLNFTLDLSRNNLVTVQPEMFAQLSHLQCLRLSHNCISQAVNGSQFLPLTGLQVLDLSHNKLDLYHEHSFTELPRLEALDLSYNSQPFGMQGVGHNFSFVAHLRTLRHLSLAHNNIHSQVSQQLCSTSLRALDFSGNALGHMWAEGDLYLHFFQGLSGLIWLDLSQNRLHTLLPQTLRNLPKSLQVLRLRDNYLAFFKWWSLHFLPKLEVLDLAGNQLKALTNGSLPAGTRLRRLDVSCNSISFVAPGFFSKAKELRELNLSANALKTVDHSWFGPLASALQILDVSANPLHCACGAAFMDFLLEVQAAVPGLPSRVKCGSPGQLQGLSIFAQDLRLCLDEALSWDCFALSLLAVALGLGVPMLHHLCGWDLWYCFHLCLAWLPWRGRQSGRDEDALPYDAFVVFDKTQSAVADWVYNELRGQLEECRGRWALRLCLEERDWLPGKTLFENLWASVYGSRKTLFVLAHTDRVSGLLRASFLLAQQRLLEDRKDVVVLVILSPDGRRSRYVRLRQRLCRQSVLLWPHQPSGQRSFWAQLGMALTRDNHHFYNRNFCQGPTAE

Row | Structure (SMILES) | IC50 (human TLR7) [nM] | IC50 (human TLR9) [nM] | IC50 (human TLR8) [nM]
1 | COc1cc(-c2[nH]c3cnc(C4CCN(CC5(C)COC5)CC4)c(F)c3c2C(C)C)cn2ncnc12 [Example 17] | 1.3 | 1860 | 1.6
2 | CNC(=O)CN1CCC(c2ncc3[nH]c(-c4cc(OC)c5ncnn5c4)c(C(C)C)c3c2F)CC1 [Example 20] | 2.5 | 6550 | 4.3
3 | COCCN1CCC(c2ncc3[nH]c(-c4cc(OC)c5ncnn5c4)c(C(C)C)c3c2F)CC1 [Example 21] | 2 | 3340 | 2.7
4 | Cc1c(-c2[nH]c3cnc(C4CCN(CC(N)=O)CC4)cc3c2C(C)C)cn2ncnc2c1C [Example 23] | 2.6 | 147 | 3.4
5 | COc1cc(-c2[nH]c3cnc(C4CCN(CC(=O)N(C)C)CC4)c(C)c3c2C(C)C)cn2ncnc12 [Example 24] | 9.7 | 279 | 39
6 | COc1cc(-c2[nH]c3cnc(C4CCN(CCS(C)(=O)=O)CC4)c(C)c3c2C(C)C)cn2ncnc12 [Example 25] | 2.3 | 188 | 7.2
7 | Cc1c(-c2[nH]c3cnc(C4CCN(C(=O)CN(C)C)CC4)c(F)c3c2C(C)C)cn2ncnc2c1C [Example 29] | 4.3 | 1700 | 4.7
8 | Cc1c(-c2[nH]c3cnc(C4CCN(CC(=O)N(C)C)CC4)cc3c2C(C)C)cn2ncnc2c1C [Example 31] | 2.1 | 132 | 6.2
9 | COc1cc(-c2[nH]c3cnc(C4CCN(C(=O)CN(C)C)CC4)c(C)c3c2C(C)C)cn2ncnc12 [Example 32] | 40 | 279 | 124
10 | Cc1c(-c2[nH]c3cnc(C4CCN(C(C)C)CC4)cc3c2C(C)C)cn2ncnc2c1C [Example 35] | 1.7 | 154 | 2.8
11 | COc1cc(-c2[nH]c3cnc(C4CCN(C(=O)CN(C)C)CC4)c(F)c3c2C(C)C)cn2ncnc12 [Example 37] | 3.3 | 409 | 4.4
12 | COc1cc(-c2[nH]c3cnc(C4CCN(C5COC5)CC4)c(F)c3c2C(C)C)cn2ncnc12 [Example 38] | 2.8 | 13100 | 12
13 | CNCC(=O)N1CCC(c2ncc3[nH]c(-c4cc(C)c5ncnn5c4)c(C(C)C)c3c2F)CC1 [Example 39] | 6.4 | 5530 | 16

More lines, now with the values ahead:

Row | IC50 (human TLR7) [nM] | IC50 (human TLR9) [nM] | IC50 (human TLR8) [nM] | Structure (SMILES)
14 | 0.76 | 1790 | 2.6 | COc1cc(-c2[nH]c3cnc(C4CCN(C(C)C)CC4)c(F)c3c2C(C)C)cn2ncnc12 [Example 18]
15 | 2 | 1760 | 3 | COc1cc(-c2[nH]c3cnc(C4CCN(CC(N)=O)CC4)c(F)c3c2C(C)C)cn2ncnc12 [Example 19]
16 | 3.1 | 633 | 6.9 | CNC(=O)CN1CCC(c2cc3c(C(C)C)c(-c4cn5ncnc5c(C)c4C)[nH]c3cn2)CC1 [Example 26]
17 | 49 | 477 | 86 | CNC(=O)CN1CCC(c2cc3c(C(C)C)c(-c4cn5ncnc5c(C)c4C)[nH]c3cn2)CC1 [Example 27]
18 | 13 | 608 | 26 | Cc1c(-c2[nH]c3cnc(C4CCNCC4)cc3c2C(C)C)cn2ncnc2c1C [Example 28]
19 | 4.7 | 855 | 7.7 | Cc1c(-c2[nH]c3cnc(C4CCN(C5COC5)CC4)cc3c2C(C)C)cn2ncnc2c1C [Example 30]
20 | 1.4 | 134 | 6.9 | COc1cc(-c2[nH]c3cnc(C4CCN(C(C)C)CC4)c(C)c3c2C(C)C)cn2ncnc12 [Example 33]
21 | 2.5 | 1510 | 2 | COc1cc(-c2[nH]c3cnc(C4CCN(CC(=O)N(C)C)CC4)c(F)c3c2C(C)C)cn2ncnc12 [Example 34]
22 | 19 | 208 | 48 | Cc1c(-c2[nH]c3cnc(C4CCN(C(=O)CN(C)C)CC4)cc3c2C(C)C)cn2ncnc2c1C [Example 36]
